Format in all cases: cell-based
The subject of one assay is A2780. The experiment in a line: CellTiter-Glo cell proliferation inhibition, A2780. The conditions noted are these: A2780 (human ovarian cancer cell line), 72 hours; read-out: Example IC50 (µM) A2780. From the text:
(§1) This experiment used the CellTiter-Glo® Luminescent Cell Viability Assay kit from Promega to evaluate the inhibitory activity of the disclosed compounds on the proliferation of the following cell lines: 4T1 (mouse breast cancer cell line), A20 (mouse B-cell lymphoma cell line), A2780 (human ovarian cancer cell line), AsPC-1 (pancreatic cancer cell line), B16F10 (mouse melanoma cell line), BT549 (human breast cancer cell line), CT26 (mouse colon cancer cell line), EMT6 (mouse breast cancer cell line), HCT116 (colorectal cancer cell line), Jurket (acute leukemia cell line), KP-4 (pancreatic cancer cell line), LL/2 (mouse lung cancer cell line), MCF7 (breast cancer cell line), […] NCI-H358 (lung cancer cell line), NCI-H727 (gastric cancer cell line), NCI-1944 (lung cancer cell line), Pan 04.03 (pancreatic cancer cell line), SK-BR-3 (breast cancer cell line), THP-1 (leukemia cell line), TOV21G (ovarian cancer cell line), U87MG (glioblastoma cell line), and UM-UC-a (bladder cancer cell line). […]
(§2) Cells were cultured according to the instructions provided by the cell supplier (Nanjing Kebai Biotechnology Co., Ltd.). […] Suspension or adherent cells were collected, and cell viability was determined using the trypan blue exclusion method, ensuring that cell viability was above 90%. […]
(In general: In ATP-based viability assays light output follows the ATP content of the culture.)

Another assay concerns AsPC-1. The experiment in a line: CellTiter-Glo cell proliferation inhibition, AsPC-1. The conditions noted are these: Homo sapiens, ASPC1; AsPC-1 (pancreatic cancer cell line), 72 hours; read-out: Example IC50 (µM) AsPC-1.
From the text: as §1, §2

In the next assay the test system is EMT6. The experiment in a line: CellTiter-Glo cell proliferation inhibition, EMT6. The settings on record: EMT6 (mouse breast cancer cell line), 72 hours; read-out: Example IC50 (µM) EMT6.
From the text: as §1, §2

In the next assay the test system is NCI-H727. Description: CellTiter-Glo cell proliferation inhibition, NCI-H727. The settings on record: Homo sapiens; […]; read-out: Example IC50 (µM) NCI-H727.
From the text: as §1, §2

The next assay concerns NCI-1944. The experiment in a line: CellTiter-Glo cell proliferation inhibition, NCI-1944. The conditions noted are these: NCI-1944 (lung cancer cell line), 72 hours; read-out: Example IC50 (µM) NCI-1944.
From the text: as §1, §2

The test system of a further assay is Pan 04.03. Description: CellTiter-Glo cell proliferation inhibition, Pan 04.03. The settings on record: Pan 04.03 (pancreatic cancer cell line), 72 hours; read-out: Example IC50 (µM) Pan 04.03.
From the text: as §1, §2

Consider `O=C(Nc1ccc(-c2csc(CO)c2)cc1)C(=O)Nc1ccc(-c2cc3cc(F)c(-c4nnn[nH]4)cc3n2C2CCC2)cc1` [Example 1], for which the IC50 came out at 0.128 µM in the assay on A2780; 0.121 µM in the assay on AsPC-1; 0.131 µM with EMT6; 0.225 µM with NCI-H727; 0.112 µM in the assay on NCI-1944; 0.34 µM in the assay with Pan 04.03.

By IC50 is commonly meant the concentration at which inhibition is half-maximal.

Source of the values: patent EP4741383A1, “COMPOUND AND USE THEREOF AS ANTI-CANCER DRUG” (Tyligand Bioscience (Shanghai) Limited, priority 2023, dated 2025).
